Where a name gives a salt, the structure may show the parent alone.
Legend:
[1] = system: human colon cancer SW620 cells; test: Galectin-3-mediated SW620 cell adhesion to HUVECs; format: cell-based; details: Galectin-3 2 μg/ml, various concentrations
Protocol: (§1) HUVEC cells at 1×10^5 cells/ml in EGM medium were seeded into 24 well plates pre-inserted with 13 mm glass coverslip. The cells were incubated at 37° C. at 5% CO2 for 24 hr for monolayer formation. AGA19+ or SW620 cell suspension (5×10^5 cells/ml in DMEM) was introduced with 5 μl/ml fluorescent cell labelling solution DiL for 30 min at 37° C. The fluorescent labelled cells were washed twice with PBS and resuspended into 1×10^5 cells/ml in DMEM. The cancer cell suspension was then introduced with galectin-3 (2 μg/ml) and various concentrations of the compound inhibitors at 37° C. for 1 hr. The wells were carefully washed twice with PBS to remove the non-adhesion cells before the cells in the wells were fixed with 2% paraformaldehyde for 10 min. The glass coverslip was carefully removed from the plate, placed on a glass slide. After addition of fluorescence mounting medium containing DAPI, fluorescence labelled cells were quantified under a fluorescence microscope.

[2] = biological target: T1, C-terminal (aa 115-250) Galectin-3 (Homo sapiens, UniProt P17931); test: Tryptophan Fluorescence Spectroscopy (TFS) binding affinity, C-terminal Galectin-3
T1 construct: made in house; host or cells: E. coli
Protocol: The binding affinity of the inhibitors to galectin-3 was determined by Intrinsic Tryptophan Fluorescence Spectroscopy (TFS) exactly as we described recently [Sindrewicz, P., et al., Intrinsic tryptophan fluorescence spectroscopy reliably determines galectin-ligand interactions. Sci Rep, 2019. 9(1): p. 11851]. The Galectin-3 concentration used was 10 μM and the inhibitor titration concentrations were from 0 to 224 μM. DMSO/control buffer (PBS with 2 mM EDTA) titrations were performed and used for background subtraction.

yeast = test: Genotoxicity in yeast
[3] = system: human umbilical vein endothelial cells (HUVECs); test: Vascular cell tubule formation (angiogenesis); format: cell-based; details: Galectin-3 2 μg/ml, compound 10 μM
Protocol: Matrigel matrix (50 μl) was added to 96-well plates for 60 min at 37° C. to allow gel formation. HUVEC cells (1×10^5 cells/ml in 1:1 EGM/EBM2 media) was introduced to the plates without or with galectin-3 (2 μg/ml) or different concentrations of compound inhibitors for 24 hr at 37° C. Endothelial cell tube formation was examined with Laser Microscope. The total number of branching points and the sum of the lengths of tubes were measured.

[4] = system: human melanoma ACA19 cells; test: ACA19 cell invasion through HUVECs (transwell); format: cell-based; details: compound 20 μM, transwells
Protocol: (§2) HUVECs were plated at a density of 1.5×10^4 cells in 8 μm pore transwells in 24-well plate and cultured for three days to allow formation of tight monolayer. The integrity of HUVEC monolayer was confirmed by measuring TEER and only monolayers with TEER reading>800 Ω/cm^2 were used for the invasion assay. AGA19+ or SW620 cell suspension (5×10^5 cells/ml in DMEM) was introduced with 5 μl/ml fluorescent cell labelling solution DiL for 30 min at 37° C. The fluorescence labelled cells were washed twice with PBS and resuspended into 1×10^5 cells/ml in DMEM. The cancer cell suspension was then incubated with or without galectin-3 (2 μg/ml) or various concentrations of the compound inhibitors or lactose at 37° C. for 20 min before introduction to the HUVEC monolayers for 24 hr at 37° C. The cells at the upper side of the trans-well inserts were gently removed with cotton swabs. The cells migrated to the bottom side of the transwells were fixed with 2% paraformaldehyde for 10 min. The trans-well membrane was removed and placed on glass slides. After addition of fluorescence mounting medium containing DAPI, the fluorescence labelled cells on the membrane were quantified under a fluorescence microscope.

[5] = system: human melanoma ACA19 cells; test: Galectin-3-mediated ACA19 cell adhesion to HUVECs; format: cell-based; details: Galectin-3 2 μg/ml, various concentrations
Protocol: as §1

[6] = system: human colon cancer SW620 cells; test: LDH release cytotoxicity assay, SW620; format: cell-based
Protocol: SW620 cells (5×10^4 cells/ml) were seeded into 96-well plate in DMEM (and incubated at 37° C. 5% CO2 for 24 hr. HUVECs (1.0×10^5 cells/ml) was seeded in EBM medium and incubated for 24-36 hr until they formed a monolayer. Compound inhibitors at different concentrations were then introduced to the cells (10× lysis buffer was included as maximum LDH activity control) for 24 hr. The culture medium was transferred to a new plate and was mixed with equal volume of reaction mixture provided in the kit for 30 min at room temperature before the absorbance was measured at 490 nm (reference 680 nm) by a spectrophotometer.

[7] = system: human colon cancer SW620 cells; test: SW620 cell invasion through HUVECs (transwell); format: cell-based; details: compound 20 μM, transwells
Protocol: as §2, with “The cancer cell suspension was then incubated with or without galectin-3 (2 μg/ml) or various concentrations of the compound inhibitors or lactose at 37° C. for 20 min before introduction to the HUVEC monolayers for 24 hr at 37° C.” left out

[8] = system: THP-1 differentiated macrophages; test: Galectin-3-induced IL-1β secretion from macrophages (ELISA); format: cell-based; details: Galectin-3 10 μg/ml, various concentrations
Protocol: Effect of the compound inhibitors on secretion of pro-inflammatory cytokines from macrophages were assessed in THP-1 monocyte differentiated macrophages. THP-1 cells were induced to differentiation into macrophages by incubation with 10 ng/ml PMA for 48 h at 37° C. The culture medium was then replaced with fresh medium without or with 10 μg/ml galectin-3 and various concentrations of the compound inhibitors for 24 h at 37° C. The culture medium was collected and the concentrations of TNFα and IL-1β in the culture medium were determined by TNFα and IL-1β ELISA.

T1 sequence (P17931 115-250): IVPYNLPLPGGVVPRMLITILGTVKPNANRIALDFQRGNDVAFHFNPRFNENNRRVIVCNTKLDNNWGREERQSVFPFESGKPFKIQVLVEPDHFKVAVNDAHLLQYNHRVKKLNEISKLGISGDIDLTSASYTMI

NC1CCN(c2nc3c(cc2F)c(=O)c(C(=O)O)cn3-c2ccc(F)cc2F)C1 (centres unmarked) [Formula X, Tosufloxacin tosylate]
Inhibition of SW620 cell adhesion to HUVECs [1]: dose-dependent inhibition
Kd [2]: 5 to 7 µM
Genotoxicity in yeast (yeast): no detectable genotoxicity
Inhibition of galectin-3-induced tubule numbers [3]: significant inhibition
Inhibition of galectin-3-induced vascular tubule length [3]: significant inhibition
Inhibition of Galectin-3-mediated invasion of ACA19 cells through HUVECs [4]: significant inhibition
Inhibition of ACA19 cell adhesion to HUVECs [5]: dose-dependent inhibition
Cytotoxicity to SW620 cells (LDH release) ([6]; at 100 μM): no detectable cytotoxicity
Cytotoxicity to SW620 cells (LDH release) ([6]; various concentrations): low cytotoxicity
Inhibition of galectin-3-mediated invasion of SW620 cells through HUVECs [7]: significant inhibition
Inhibition of galectin-3-induced IL-1β secretion [8]: dose-dependent inhibition

Source: patent US20260232644A1, “Compositions Comprising an Inhibitor of Galectin-3” (University of Liverpool, priority 2023, published 2026)
